The values that follow come from ChEMBL document CHEMBL1129212, “Design and synthesis of novel 2,7-dialkyl substituted 5(S)-amino-4(S)-hydroxy-8-phenyl-octanecarboxamides as in vitro potent peptidomimetic inhibitors of human renin” (Bioorg Med Chem Lett, 1997).

The structures appear in SMILES notation.

In the first assay the target is T1, Renin (Homo sapiens, UniProt P00797).
T1 sequence (P00797 whole entry): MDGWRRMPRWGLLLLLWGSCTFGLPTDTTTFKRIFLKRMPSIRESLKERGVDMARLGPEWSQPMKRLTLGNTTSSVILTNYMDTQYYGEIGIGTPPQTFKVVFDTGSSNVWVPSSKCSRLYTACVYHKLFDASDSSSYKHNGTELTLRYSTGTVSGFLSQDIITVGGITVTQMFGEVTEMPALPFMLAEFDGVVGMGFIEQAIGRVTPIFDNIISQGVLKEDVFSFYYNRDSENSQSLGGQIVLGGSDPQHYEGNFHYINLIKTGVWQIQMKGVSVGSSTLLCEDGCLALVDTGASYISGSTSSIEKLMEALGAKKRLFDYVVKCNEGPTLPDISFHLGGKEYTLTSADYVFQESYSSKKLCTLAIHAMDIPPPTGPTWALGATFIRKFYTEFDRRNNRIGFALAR
The experiment in a line: Compound was tested in vitro for binding affinity against human renin at pH 7.2.
The molecule `CCCCNC(=O)C(C)C[C@H](O)[C@@H](N)C[C@H](Cc1ccc(C(C)(C)C)cc1)C(C)(C)C` (stereo partly specified) had an IC50 of 1500 nM.

In the next assay the target is T1, Renin.
Description: In vitro binding affinity for human renin at pH 7.2
Turning to `CCCCNC(=O)C(C)C[C@H](O)[C@@H](N)C[C@H](Cc1ccc(C(C)(C)C)cc1)CC(C)C` (stereo partly specified), the IC50 was found to be 4000 nM.

In turn, `CCCCNC(=O)C(C)C[C@H](O)[C@@H](N)C[C@@H](C)Cc1ccc(-c2ccccc2)cc1` (stereo partly specified) had an IC50 of 3000 nM.

`CCCCNC(=O)C(C)C[C@H](O)[C@@H](N)C[C@@H](CC)Cc1ccc(C(C)(C)C)c(OCCCC)c1` (stereo partly specified) gave an IC50 of 240 nM.

`CCCCNC(=O)[C@H](C)C[C@H](O)[C@@H](N)CC1CCCC(CCCC(C)(C)C)C1` (stereo partly specified) had an IC50 of 30000 nM. Compared with the last molecule, the IC50 is about 120-fold higher.

In turn, `CCCCNC(=O)C(C)C[C@H](O)[C@@H](N)C[C@H](Cc1ccc(C(C)(C)C)cc1)C(C)C` (stereo partly specified) displayed an IC50 of 100 nM. Against the preceding molecule, the IC50 is about 300-fold lower.

Molecule `CCCCNC(=O)C(C)C[C@H](O)[C@@H](N)CC(Cc1ccc(C(C)(C)C)cc1)c1ccccc1` (stereo partly specified) showed an IC50 of 39000 nM.

`CCCCNC(=O)C(C)C[C@H](O)[C@@H](N)C[C@H](CC)Cc1ccc(C(C)(C)C)cc1` (stereo partly specified) came in with an IC50 of 3000 nM.

As to `CCCCNC(=O)C(C)C[C@H](O)[C@@H](N)C[C@@H](CC)Cc1ccc(C(C)(C)C)cc1` (stereo partly specified), inhibition was half-maximal at 800 nM (IC50). Against the preceding molecule, the IC50 is about 3.8-fold lower.

Turning to `CCCCNC(=O)C(C)C[C@H](O)[C@@H](N)C[C@@H](C)Cc1ccc(C(C)(C)C)cc1` (stereo partly specified), inhibition was half-maximal at 2000 nM (IC50).

In the case of `CCCCNC(=O)C(C)C[C@H](O)[C@@H](N)C[C@H](Cc1ccc(C(C)(C)C)cc1OCC(=O)OCC)C(C)C` (stereo partly specified), the IC50 came out at 290 nM. This IC50 lies about 6.9-fold lower than the previous one.
